Reference: patent US10874683B2, “N4-hydroxycytidine and derivatives and anti-viral uses related thereto” (Emory University, priority 2016, dated 2020)
Like-named read-outs stand apart in the source and are kept apart here.

How the values were obtained:
[1] = test system: ZIKV; assay: ZIKV antiviral assay; format: cell-based; details: Zika virus, read-out: ZIKV (EC50 μM)
[2] = Cytotoxicity in Vero cells (ZIKV table); details: African green monkey
[3] = rat, in vivo, po, 50 mg/kg
[4] = test system: CEM cells; assay: Cytotoxicity profile, CEM cells; format: cell-based; details: CEM cells (low of range)
[5] = test system: pestivirus, hepacivirus; details: Stuyver et al., Antimicrob Agents Chemother 2003; cited from earlier work
[6] = test system: EEE virus; assay: organism not typed; format: cell-based; details: Vero
[7] = in vivo; details: male, SD, rat, po, 50 mg/kg
[8] = test system: VEE virus; assay: organism not typed; format: cell-based; details: Vero
[9] = test system: WEE virus; assay: organism not typed; format: cell-based; details: Vero
[10] = test system: CHIK virus; assay: organism not typed; format: cell-based; details: Vero
[11] = Toxicology after 6 day q.d. intraperitoneal injections in mice; format: in vivo
Text: Alternatively, drug delivery by aerosol (nasal spray) administration may immediately achieve therapeutic levels of drug in the nasal mucosa and the brain.

[12] = Rodent pharmacokinetic experiment in DBA-1J mice; format: in vivo; details: for concentration at 24 h: oral, read-out: 24 hr plasma levels
Procedure: DBA-1J mice (6-8 weeks old, female) were acclimated for ≥2 days after receipt. Mice were weighed the day before dosing to calculate dosing volumes. Mice were dosed by oral gavage with drug at 30 mg/kg, 100 mg/kg & 300 mg/kg. The mice were sampled at […] time points: 0.5, 1, 2, 3, 4, 8 and 24 hrs (3 mice per time point for test drug). The mice were euthanized and their organs were collected (see below). In order to collected blood, mice with euthanized by CO2 at the appropriate time point listed above. Blood was obtained by cardiac puncture (0.3 ml) at each time point. Following blood collection, the organs were removed from the mice (see below). The blood was processed by inverting Li-Heparin tube with blood gently 2 or 3 times to mix well. The tubes were then placed in a rack in ice water until able to centrifuge (≤1 hour). As soon as practical, the blood was centrifuged at ˜2000×g for 10 min in a refrigerated centrifuge to obtain plasma. Then, using a 200 μL pipette, the plasma was transferred to a labeled 1.5 ml Eppendorf tube in ice water. The plasma was then frozen in freezer or on dry ice. The samples were stored at −80° C. prior to analysis. Organs were collected from euthanized mice. The organs (lungs, liver, kidney, spleen and heart) were removed, placed in a tube, and immediately frozen in liquid nitrogen. The tubes were then transferred to dry ice. The samples were saved in cryogenic tissue vials. Samples were analyzed by LC-MS/MS using an ABSCIEX 5500 QTRAP LC-MS/MS system with a Hypercarb (PGC) column.

[13] = test system: Huh7 (liver) cells; assay: Cytotoxicity profile, Huh7 (liver) cells; format: cell-based; details: Huh7 (liver) cells (high of range)
[14] = Rodent pharmacokinetic experiment in DBA-1J mice; format: in vivo; details: female, mouse, plasma, after IV dosing, read-out: plasma T1/2 (converted)
[15] = test system: Ross River virus; assay: Vero cell cytopathic effect (CPE) model, Ross River virus; format: cell-based

In the case of O=c1nc(NO)ccn1[C@@H]1O[C@H](CO)[C@H](O)C1O (stereo partly drawn) [drawing 106], the EC50 [1] is reported as 4.02 µM and the CC50 [2] is reported as 50400 nM.
For O=c1nc(NO)ccn1[C@@H]1O[C@H](CO)[C@H](O)C1O (stereo in doubt) [EIDD-01931, 1-(3,4-dihydroxy-5-(hydroxymethyl)tetrahydrofuran-2-yl)-4-(hydroxyamino)pyrimidin-2-one], the tissue distribution [3] is listed as “well distributed into all tissues tested”, the selectivity index [4] is listed as 8 and the antiviral activity [5] is listed as “antipestivirus and antihepacivirus activities”. The EC50 [6] was 1080 nM, the bioavailability [7] was 28% and the EC50 [8] was 1000 nM. For the same compound, the EC50 [9] was 1360 nM, the EC50 [10] was 1280 nM and the “body weight effect at highest dose tested” value ([11]; 100 mg/kg, 6 day q.d. IP, reversed on cessation of dosing) was “weight loss was observed”. For the same compound, the “NOEL (NO Effect Level)” value ([11]; 6 day q.d. intraperitoneal (IP) injections) was 33 mg/kg, the “Bioavailability (versus I.P. delivery)” value ([12]; 30 mg/kg PO dosing) was 65% and the “Bioavailability (versus I.P. delivery)” value ([12]; 100 and 300 mg/kg PO dosing) was 39-46%. For the same compound, the Cmax ([12]; female, DBA-1J, mouse, plasma, PO dosing 30 mg/kg) was 3 ng/mL, the Cmax ([12]; female, DBA-1J, mouse, plasma, PO dosing 100 mg/kg) was 7.7 ng/mL and the Cmax ([12]; female, DBA-1J, mouse, plasma, PO dosing 300 mg/kg) was 11.7 ng/mL. The half-life ([12]; female, DBA-1J, mouse, plasma, after PO dosing, read-out: plasma T1/2) was 4.1 to 4.7 h, the Tmax ([12]; female, DBA-1J, mouse, plasma, after oral dosing) was 0.25 to 0.5 h and the concentration at 24 h ([12]; female, DBA-1J, mouse, plasma, after 100 mg/kg dose) was about 100 nM. It also gave a concentration at 24 h ([12]; female, DBA-1J, mouse, plasma, after 300 mg/kg P.O. dose) of about 400 nM, a selectivity index [13] of 232 and a half-life [14] of 2.2 h. For the same compound, the EC50 [15] was 2450 nM.
